Results from the supplement of paper PMC11061612.

What was measured:
Experiment in all cases: Bliss excess, mean over the matrix (fraction); higher = more synergy
[1] = system: BV-173 (Chronic Myelogenous Leukemia)
Procedure, shortened: (§1)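 Cell lines in DMEM/F12 or RPMI with 10% FBS were plated in 1536-well plates, held 24 hours at 37°C, 5% CO2, then given two-drug dose matrices for 72 hours (DMSO typically 0.2%). Viability was read by CellTiter-Glo 2.0 luminescence and scaled as inhibition from 0 (vehicle wells) to 1 (blank wells). Combination Emax is the second-highest inhibition in the matrix; Bliss excess is observed combination effect minus expected EA + EB − EA·EB, EA and EB being single-agent effects.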

[2] = system: JHH-7 (Hepatocellular Carcinoma)
Procedure, shortened: as §1

[3] = system: KYSE-50 (Esophageal Squamous Cell Carcinoma)
Procedure, shortened: as §1

[4] = system: KINGS-1 (Low Grade Glioma)
Procedure, shortened: as §1

[5] = system: EW-3 (Ewing's Sarcoma)
Procedure, shortened: as §1

[6] = system: LOU-NH91 (Squamous Cell Lung Carcinoma)
Procedure, shortened: as §1

[7] = system: PF-382 (T-Lymphoblastic Leukemia)
Procedure, shortened: as §1

[8] = system: KLE (Endometrial Carcinoma)
Procedure, shortened: as §1

[9] = system: KU-19-19 (Bladder Carcinoma)
Procedure, shortened: as §1

[10] = system: OCUM-1 (Gastric Carcinoma)
Procedure, shortened: as §1

[11] = system: SCC-3 (B-Cell Non-Hodgkin's Lymphoma)
Procedure, shortened: as §1

[12] = system: HC-1 (Other Blood Carcinomas)
Procedure, shortened: as §1

[13] = system: KP-2 (Pancreatic Carcinoma)
Procedure, shortened: as §1

[14] = system: MFE-319 (Endometrial Carcinoma)
Procedure, shortened: as §1

[15] = system: H-EMC-SS (Chondrosarcoma)
Procedure, shortened: as §1

[16] = system: VMRC-LCD (Lung Adenocarcinoma)
Procedure, shortened: as §1

[17] = system: GOTO (Neuroblastoma)
Procedure, shortened: as §1

[18] = system: NCI-H1573 (Lung Adenocarcinoma)
Procedure, shortened: as §1

[19] = system: EBC-1 (Squamous Cell Lung Carcinoma)
Procedure, shortened: as §1

[20] = system: OVISE (Ovarian Carcinoma)
Procedure, shortened: as §1

SMILES	Bliss excess [1]	Bliss excess [2]	Bliss excess [3]	Bliss excess [4]	Bliss excess [5]	Bliss excess [6]	Bliss excess [7]	Bliss excess [8]	Bliss excess [9]	Bliss excess [10]	Bliss excess [11]	Bliss excess [12]	Bliss excess [13]	Bliss excess [14]	Bliss excess [15]	Bliss excess [16]	Bliss excess [17]	Bliss excess [18]	Bliss excess [19]	Bliss excess [20]
Cn1cnc2c(F)c(Nc3ccc(Br)cc3Cl)c(C(=O)NOCCO)cc21 [Selumetinib] + CC(C)n1c(=O)n(C)c2cnc3cc(F)c(-c4ccc(OCCCN5CCCCC5)nc4)cc3c21 [AZD1390] (first compound max 10 µM, 7x7, partner max 0.3 µM)	-0.03	-0.0517	-0.0046	-0.0115	-0.0455	0.0028	-0.0238	-0.0057	-0.0257	-0.0152	0.0273	-0.0327	-0.008	-0.112	-0.0135	-0.0191	0.0225	-0.0642	-0.0265	-0.0339
NC1(C(=O)N[C@@H](CCO)c2ccc(Cl)cc2)CCN(c2ncnc3[nH]ccc23)CC1 [Capivasertib] + CC(C)n1c(=O)n(C)c2cnc3cc(F)c(-c4ccc(OCCCN5CCCCC5)nc4)cc3c21 [AZD1390] (first compound max 10 µM, 7x7, partner max 0.3 µM)	-0.0639	-0.0584	-0.0723	-0.0398	-0.0908	-0.0997	-0.0211	-0.0455	-0.0939	-0.039	-0.0169	-0.0706	-0.0612	-0.0921	-0.0296	-0.0297	-0.0465	-0.111	-0.0046	-0.042
CC1(C)CCC(CN2CCN(c3ccc(C(=O)NS(=O)(=O)c4ccc(NCC5CCOCC5)c([N+](=O)[O-])c4)c(Oc4cnc5[nH]ccc5c4)c3)CC2)=C(c2ccc(Cl)cc2)C1 [Venetoclax] + COc1cc(Nc2ncc3c(n2)-c2ccc(Cl)cc2C(c2c(F)cccc2OC)=NC3)ccc1C(=O)O [Alisertib] (first compound max 1 µM, 7x7, partner max 10 µM)	-0.018	-0.0134	-0.0101	-0.0049	0.079	-0.0026	0.0444	-0.0709	-0.0086	0.0489	0.0308	0.18	-0.0293	-0.0256	0.0092	-0.043	-0.0217	-0.0266	-0.0271	-0.0523
CC1(C)CCC(CN2CCN(c3ccc(C(=O)NS(=O)(=O)c4ccc(NCC5CCOCC5)c([N+](=O)[O-])c4)c(Oc4cnc5[nH]ccc5c4)c3)CC2)=C(c2ccc(Cl)cc2)C1 [Venetoclax] + C1CN(CCC1(C(=O)N[C@@H](CCO)C2=CC=C(C=C2)Cl)N)C3=NC=NC4=C3C=CN4 [Capivasertib] (first compound max 1 µM, 7x7, partner max 3 µM)	-0.0613	-0.0266	-0.0418	-0.0696	0.0001	-0.0805	-0.0144	-0.106	-0.0465	-0.0252	-0.0335	0.0217	-0.0586	-0.0414	-0.0204	-0.0514	0.0111	-0.0733	-0.0395	-0.0059
Cc1c2c(nn1C)CSCc1cc(n(C)n1)CSc1cc(c3ccccc3c1)OCCCc1c(C(=O)O)n(C)c3c-2c(Cl)ccc13 [AZD5991] + CN(C)CCCOc1ccc(-c2ccc3ncc4c(c3c2)n(C2CCOCC2)c(=O)n4C)cn1 [AZD0156] (first compound max 1 µM, 7x7, partner max 1 µM)	-0.114	-0.0091	-0.0031	0.0128	-0.0499	0.01	0.0109	-0.0504	0.0263	-0.016	0.0027	-0.0479	-0.0125	0.0347	-0.0106	0.0165	-0.0418	-0.0443	0.0581	-0.0007
CC(=O)c1c(C)c2cnc(Nc3ccc(N4CCNCC4)cn3)nc2n(C2CCCC2)c1=O [Palbociclib] + Cn1cnc2c(F)c(Nc3ccc(Br)cc3Cl)c(C(=O)NOCCO)cc21 [Selumetinib] (first compound max 10 µM, 7x7, partner max 10 µM)	-0.0657	-0.0039	0.0789	-0.0272	0.0301	-0.0975	0.043	0.0167	-0.0054	-0.0321	0.0581	-0.0354	-0.0153	0.0042	0.008	-0.0448	0.0623	0.0017	0.0982	-0.0174
Cc1c2c(nn1C)CSCc1cc(n(C)n1)CSc1cc(c3ccccc3c1)OCCCc1c(C(=O)O)n(C)c3c-2c(Cl)ccc13 [AZD5991] + C[C@@H]1COCCN1C2=NC(=NC(=C2)C3(CC3)[S@](=N)(=O)C)C4=C5C=CNC5=NC=C4 [AZD6738] (first compound max 1 µM, 7x7, partner max 10 µM)	-0.0537	0.0642	-0.0348	0.0151	0.0207	0.0408	0.063	-0.0021	-0.0013	-0.0052	0.0538	0.0639	0.0446	0.05	0.0187	0.0179	-0.0213	-0.033	0.039	-0.0118
COc1cc2ncnc(Nc3ccc(F)c(Cl)c3)c2cc1OCCCN1CCOCC1 [Gefitinib] + CC(C)n1c(=O)n(C)c2cnc3cc(F)c(-c4ccc(OCCCN5CCCCC5)nc4)cc3c21 [AZD1390] (first compound max 10 µM, 7x7, partner max 0.3 µM)	-0.0778	-0.0451	-0.0546	-0.0594	-0.0347	-0.0195	-0.0668	-0.0548	-0.0831	-0.101	-0.0418	-0.127	-0.0438	-0.0805	-0.0502	-0.0405	-0.07	-0.104	-0.0434	-0.0739
COc1cccc(OCCCN)c1-c1cc(Nc2cnc(C#N)cn2)n[nH]1 [Prexasertib] + CN(C)CCCOc1ccc(-c2ccc3ncc4c(c3c2)n(C2CCOCC2)c(=O)n4C)cn1 [AZD0156] (first compound max 1 µM, 7x7, partner max 1 µM)	-0.0676	-0.021	0.0138	-0.0927	-0.0437	-0.0374	-0.0448	0.002	-0.0046	0.0558	0.0103	-0.0134	-0.0286	-0.0129	-0.0264	-0.0075	-0.0098	-0.0309	-0.0297	0.0209
COc1nnc2ccc(N3CCC(c4ccc(OCCN5CCN(C)C(=O)[C@H]5C)cc4)CC3)nn12 [AZD5153] + C[C@@H]1COCCN1C2=NC(=NC(=C2)C3(CC3)[S@](=N)(=O)C)C4=C5C=CNC5=NC=C4 [AZD6738] (first compound max 1 µM, 7x7, partner max 10 µM)	-0.0506	0.04	0.0172	-0.0124	-0.0647	-0.0012	0.0239	-0.0287	-0.0645	0.0413	-0.0195	-0.0468	0.0565	-0.0852	-0.0001	0.0235	-0.0422	0.0531	0.0351	-0.0213
CC1(C)CCC(CN2CCN(c3ccc(C(=O)NS(=O)(=O)c4ccc(NCC5CCOCC5)c([N+](=O)[O-])c4)c(Oc4cnc5[nH]ccc5c4)c3)CC2)=C(c2ccc(Cl)cc2)C1 [Venetoclax] + Cc1cc2ncnn2cc1Nc1ncc2c(n1)n(C1CCOCC1)c(=O)n2C [AZD7648] (first compound max 1 µM, 7x7, partner max 10 µM)	-0.0492	-0.0446	0.0065	-0.0474	0.0149	-0.0202	-0.0134	-0.0432	-0.0571	-0.0144	-0.0016	-0.02	-0.0577	-0.0442	-0.0179	-0.0675	-0.0442	-0.0242	0.031	-0.0464
COc1nnc2ccc(N3CCC(c4ccc(OCCN5CCN(C)C(=O)[C@H]5C)cc4)CC3)nn12 [AZD5153] + Cn1cnc2c(F)c(Nc3ccc(Br)cc3Cl)c(C(=O)NOCCO)cc21 [Selumetinib] (first compound max 1 µM, 7x7, partner max 10 µM)	-0.0503	-0.0274	0.0571	-0.029	-0.0625	-0.0463	0.0686	-0.0636	-0.0007	-0.0347	-0.053	-0.105	-0.0001	-0.0265	0.0176	-0.0401	-0.0522	0.0491	0.0979	-0.0304
CCN(CCO)CCCOc1ccc2c(Nc3cc(CC(=O)Nc4cccc(F)c4)[nH]n3)ncnc2c1 [AZD2811] + C[C@@H]1COCCN1C2=NC(=NC(=C2)C3(CC3)[S@](=N)(=O)C)C4=C5C=CNC5=NC=C4 [AZD6738] (first compound max 1 µM, 7x7, partner max 10 µM)	-0.0537	-0.048	-0.051	-0.112	-0.0152	-0.0583	-0.089	-0.0262	-0.0384	-0.0188	0.0411	-0.007	-0.0084	-0.0472	-0.0723	-0.0853	0.027	-0.0613	-0.0182	-0.0542
Cc1nc(Nc2ncc(C(=O)Nc3c(C)cccc3Cl)s2)cc(N2CCN(CCO)CC2)n1 [Dasatinib] + CC(=O)Nc1cccc(-n2c(=O)n(C3CC3)c(=O)c3c(Nc4ccc(I)cc4F)n(C)c(=O)c(C)c32)c1 [Trametinib] (first compound max 2 µM, 7x7, partner max 1 µM)	-0.179	-0.0394	0.043	-0.0416	-0.0576	-0.0403	0.198	-0.0052	0.0906	0.0155	-0.0403	-0.0813	0.136	-0.108	0.0331	-0.0596	-0.0631	0.0311	0.0399	0.0504
